Each compound was assayed against T1, recombinant human mPGES-1 (Homo sapiens, UniProt O14684) (assay: mPGES-1 inhibition, HTRF detection of PGE2).
T1 construct: made in house; host or cells: Rosetta E. coli (microsomal/membrane fraction)
T1 sequence (O14684 1-152): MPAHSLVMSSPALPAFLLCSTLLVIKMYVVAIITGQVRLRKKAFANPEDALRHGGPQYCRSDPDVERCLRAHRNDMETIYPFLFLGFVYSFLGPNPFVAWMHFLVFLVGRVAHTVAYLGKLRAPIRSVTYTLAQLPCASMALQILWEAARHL
Type: biochemical
In short: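 First, inhibitor is incubated with microsomal enzyme from Rosetta E. coli in KPi pH 7.4 containing 2.5 mM GSH for 25 minutes at room temperature. Next, PGH2 is added and stopped after one minute with FeCl2 stop solution. Finally, diluted samples undergo HTRF PGE2 quantification.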

Point of comparison: Cn1c(Nc2c(Cl)cc(F)cc2Cl)nc2cc(C(=O)NCc3ccccc3C(F)(F)F)c(OCC(F)F)nc21 [Example 871, 2-(2,6-Dichloro-4-fluoro-phenylamino)-5-(2,2-difluoro-ethoxy)-N-(2-trifluoromethyl-benzyl)-3-methyl-3H-imidazo[4,5-b]pyridine-6-carboxamide], inhibition at 10 µM 100%. Against it:
- Cn1c(Nc2c(F)cccc2Cl)nc2cc(C(=O)N[C@H]3CC[C@H](C(F)(F)F)CC3)c(OCC(F)F)nc21 [Example 783, 2-(2-Chloro-6-fluoro-phenylamino)-5-(2,2-difluoro-ethoxy)-N-(trans-4-trifluoromethyl-cyclohexyl)-3-methyl-3H-imidazo[4,5-b]pyridine-6-carboxamide] — the same, 100%
- CN(C)CCOc1nc2c(cc1C(=O)N[C@H]1CC[C@H](C(F)(F)F)CC1)nc(Nc1c(Cl)cc(F)cc1Cl)n2C [Example 865, 2-(2,6-Dichloro-4-fluoro-phenylamino)-5-(2-dimethylamino-ethoxy)-N-(trans-4-trifluoromethyl-cyclohexyl)-3-methyl-3H-imidazo[4,5-b]pyridine-6-carboxamide] — lower, 92%
- CC(C)[C@H]1CC[C@H](NC(=O)c2cnc3[nH]c(Nc4c(Cl)cccc4Cl)nc3c2)CC1 [Example 394, 2-(2,6-Dichlorophenylamino)-N-((1r,4r)-4-isopropylcyclohexyl)-3H-imidazo[4,5-b]pyridine-6-carboxamide] — the same, 100%
- CCCCCCCCNC(=O)c1cnc2c(c1)nc(Nc1c(Cl)cccc1Cl)n2C [Example 403, 2-(2,6-Dichlorophenylamino)-3-methyl-N-octyl-3H-imidazo[4,5-b]pyridine-6-carboxamide] — the same, 100%
- O=C(Nc1ccc(Br)cc1)c1cnc2[nH]c(Nc3c(Cl)cccc3Cl)nc2c1 [Example 401, N-(4-Bromophenyl)-2-(2,6-dichlorophenylamino)-3H-imidazo[4,5-b]pyridine-6-carboxamide] — the same, 100%
- CCCC[C@@H](C)NC(=O)c1cnc2c(c1)nc(Nc1c(Cl)cccc1Cl)n2C [Example 508, (R)-2-(2,6-Dichlorophenylamino)-N-(hexan-2-yl)-3-methyl-3H-imidazo[4,5-b]pyridine-6-carboxamide] — lower, 94%
- CCCCCC[C@@H](C)NC(=O)c1cnc2c(c1)nc(Nc1c(Cl)cccc1Cl)n2C [Example 411, (R)-2-(2,6-Dichlorophenylamino)-3-methyl-N-(oct-2-yl)-3H-imidazo[4,5-b]pyridine-6-carboxamide] — the same, 100%
- O=C(NCc1ncccc1C(F)(F)F)c1cc2nc(Nc3c(Cl)cc(F)cc3Cl)[nH]c2nc1OCC(F)(F)F [Example 830, 2-(2,6-Dichloro-4-fluoro-phenylamino)-5-(2,2,2-trifluoro-ethoxy)-N-((3-trifluoromethyl-pyridin-2-yl)-methyl)-3H-imidazo[4,5-b]pyridine-6-carboxamide] — lower, 98%
- Cn1c(Nc2c(Cl)cc(F)cc2Cl)nc2cc(C(=O)N[C@H]3CC[C@H](C(F)(F)F)CC3)c(OCC(F)F)nc21 [Example 863, 2-(2,6-Dichloro-4-fluoro-phenylamino)-5-(2,2-difluoro-ethoxy)-N-(trans-4-trifluoromethyl-cyclohexyl)-3-methyl-3H-imidazo[4,5-b]pyridine-6-carboxamide] — lower, 82%
- O=C(N[C@H]1CC[C@H](C(F)(F)F)CC1)c1cc2nc(Nc3c(F)cccc3Cl)[nH]c2nc1OCC(F)F [Example 785, 2-(2-Chloro-6-fluoro-phenylamino)-5-(2,2-difluoro-ethoxy)-N-(trans-4-trifluoromethyl-cyclohexyl)-3H-imidazo[4,5-b]pyridine-6-carboxamide] — the same, 100%
- CCCCCC[C@H](C)NC(=O)c1cnc2c(c1)nc(Nc1c(Cl)cccc1Cl)n2C [Example 471, (S)-2-(2,6-Dichlorophenylamino)-3-methyl-N-(oct-2-yl)-3H-imidazo[4,5-b]pyridine-6-carboxamide] — lower, 99%
- CCCCC[C@H](C)NC(=O)c1cnc2c(c1)nc(Nc1c(Cl)cccc1Cl)n2C [Example 497, (S)-2-(2,6-Dichlorophenylamino)-N-(hept-2-yl)-3-methyl-3H-imidazo[4,5-b]pyridine-6-carboxamide] — lower, 98%
- O=C(NCC(F)(F)C(F)(F)C(F)(F)C(F)(F)F)c1cc2nc(Nc3c(Cl)cc(F)cc3Cl)[nH]c2nc1OCC(F)(F)F [Example 829, 2-(2,6-Dichloro-4-fluoro-phenylamino)-5-(2,2,2-trifluoro-ethoxy)-N-(2,2,3,3,4,4,5,5,5-nonafluoropentyl)-3H-imidazo[4,5-b]pyridine-6-carboxamide] — the same, 100%
- Cn1c(Nc2c(Cl)cncc2Cl)nc2cc(C(=O)NCC(F)(F)C(F)(F)C(F)(F)C(F)(F)F)c(OCC(F)(F)F)nc21 [Example 850, 2-(3,5-Dichloro-pyridin-4-ylamino)-5-(2,2,2-trifluoro-ethoxy)-N-(2,2,3,3,4,4,5,5,5-nonafluoro-pentyl)-3-methyl-3H-imidazo[4,5-b]pyridine-6-carboxamide] — lower, 99%
- Cc1ccnc(Cl)c1Nc1nc2cc(C(=O)N[C@H]3CC[C@H](C(F)(F)F)CC3)c(OCC(F)F)nc2[nH]1 [Example 797, 2-(2-Chloro-4-methyl-pyridin-3-ylamino)-5-(2,2-difluoro-ethoxy)-N-(trans-4-trifluoromethyl-cyclohexyl)-3H-imidazo[4,5-b]pyridine-6-carboxamide] — the same, 100%
- O=C(N[C@H]1CC[C@H](C(F)(F)F)CC1)c1cc2nc(Nc3cnccc3C(F)(F)F)[nH]c2nc1OCC(F)F [Example 799, 2-(4-Trifluoromethyl-pyridin-3-ylamino)-5-(2,2-difluoro-ethoxy)-N-(trans-4-trifluoromethyl-cyclohexyl)-3H-imidazo[4,5-b]pyridine-6-carboxamide] — lower, 99%
- O=C(N[C@H]1CC[C@H](C(F)(F)F)CC1)c1cnc2[nH]c(Nc3c(Cl)cccc3Cl)nc2c1 [Example 459, 2-(2,6-Dichlorophenylamino)-N-((1r,4r)-4-trifluoromethyl-cyclohexyl)-3H-imidazo[4,5-b]pyridine-6-carboxamide] — the same, 100%
- O=C(Nc1cc(C(F)(F)F)ccn1)c1cc2nc(Nc3c(Cl)cc(F)cc3Cl)[nH]c2nc1OCC(F)F [Example 821, 2-(2,6-Dichloro-4-fluoro-phenylamino)-5-(2,2-difluoro-ethoxy)-N-(4-trifluoromethyl-pyridin-2-yl)-3H-imidazo[4,5-b]pyridine-6-carboxamide] — lower, 90%
- CCCC[C@H](C)NC(=O)c1cnc2c(c1)nc(Nc1c(Cl)cccc1Cl)n2C [Example 527, (S)-2-(2,6-Dichlorophenylamino)-N-(hex-2-yl)-3-methyl-3H-imidazo[4,5-b]pyridine-6-carboxamide] — lower, 96%
- Cn1c(Nc2c(Cl)cccc2Cl)nc2cc(C(=O)NC3CCC4(CC4)C3)cnc21 (centres unmarked) [Example 506, 2-(2,6-Dichlorophenylamino)-3-methyl-N-(spiro[2.4]heptan-5-yl)-3H-imidazo[4,5-b]pyridine-6-carboxamide] — the same, 100%
- Cc1ccnc(Cl)c1Nc1nc2cc(C(=O)N[C@H]3CC[C@H](C(F)(F)F)CC3)c(OCC(F)F)nc2n1C [Example 788, 2-(2-Chloro-4-methyl-pyridin-3-ylamino)-5-(2,2-difluoro-ethoxy)-N-(trans-4-trifluoromethyl-cyclohexyl)-3-methyl-3H-imidazo[4,5-b]pyridine-6-carboxamide] — lower, 98%
- CCOc1nc2[nH]c(Nc3c(Cl)cncc3Cl)nc2cc1C(=O)Nc1ccc(Br)cc1 [Example 856, 2-(3,5-Dichloro-pyridin-4-ylamino)-5-ethoxy-N-(4-bromo-phenyl)-3H-imidazo[4,5-b]pyridine-6-carboxamide] — lower, 93%
- CCOc1nc2[nH]c(Nc3c(Cl)cncc3Cl)nc2cc1C(=O)Nc1cc(C(F)(F)F)ccn1 [Example 845, 2-(3,5-Dichloro-pyridin-4-ylamino)-5-ethoxy-N-(4-trifluoromethyl-pyridin-2-yl)-3H-imidazo[4,5-b]pyridine-6-carboxamide] — lower, 99%
- Cn1c(Nc2c(Cl)cccc2Cl)nc2cc(C(=O)Nc3ccc(Br)cc3)cnc21 [Example 463, N-(4-Bromophenyl)-2-(2,6-dichlorophenylamino)-3-methyl-3H-imidazo[4,5-b]pyridine-6-carboxamide] — lower, 97%
- COCCOc1nc2c(cc1C(=O)N[C@H]1CC[C@H](C(F)(F)F)CC1)nc(Nc1c(Cl)cncc1Cl)n2C [Example 868, 2-(3,5-Dichloro-pyridin-4-ylamino)-5-(2-methoxy-ethoxy)-N-(trans-4-trifluoromethyl-cyclohexyl)-3-methyl-3H-imidazo[4,5-b]pyridine-6-carboxamide] — the same, 100%
- CC1(C)CCCC(NC(=O)c2cnc3[nH]c(Nc4c(Cl)cccc4Cl)nc3c2)C1 (centres unmarked) [Example 469, 2-(2,6-Dichlorophenylamino)-N-(3,3-dimethylcyclohexyl)-3H-imidazo[4,5-b]pyridine-6-carboxamide] — the same, 100%
- CC(=O)N(C)CCOc1nc2[nH]c(Nc3c(Cl)cncc3Cl)nc2cc1C(=O)NCC(F)(F)C(F)(F)C(F)(F)C(F)(F)F [Example 809, 2-(3,5-Dichloro-pyridin-4-ylamino)-5-(2-(acetyl-methyl-amino)-ethoxy)-N-(2,2,3,3,4,4,5,5,5-nonafluoro-pentyl)-3H-imidazo[4,5-b]pyridine-6-carboxamide] — the same, 100%

Cn1c(Nc2c(F)cccc2C(F)(F)F)nc2cc(C(=O)N[C@H]3CC[C@H](C(F)(F)F)CC3)c(OCC(F)F)nc21 [Example 780, 2-(2-Fluoro-6-trifluoromethyl-phenylamino)-5-(2,2-difluoro-ethoxy)-N-(trans-4-trifluoromethyl-cyclohexyl)-3-methyl-3H-imidazo[4,5-b]pyridine-6-carboxamide] gave an inhibition at 1 µM of 100%.

From US8703796B2, “3H-imidazo [4, 5-B] pyridine-6-carboxamides as anti-inflammatory agents” (Boehringer Ingelheim International GmbH, priority 2008, dated 2014)
